Experimental findings from patent publication US6455559B1, “Phenylacetamido-pyrazole derivatives, process for their preparation and their use as antitumor agents” (Pharmacia Italia S.p.A., priority 2001, dated 2002) are described below.

In the experiment the target is cdk2/Cyclin A (Homo sapiens, UniProt P24941). Put plainly: inhibition assay of cdk2/Cyclin A activity (MultiScreen-PH phosphocellulose filter plate, histone H1, P33γ-ATP). To be noted: tested against cdk2/A; read-out: inhibitory activity, expressed as IC50. Format: biochemical.

Experimental: The inhibiting activity of putative cdk/cyclin inhibitors and the potency of selected compounds was determined through a method of assay based on the use of the MultiScreen-PH 96 well plate (Millipore), in which phosphocellulose filter paper was placed at each well bottom allowing binding of positive charged substrate after a washing/filtration step.
When a radioactivity labelled phosphate moiety was transferred by the ser/threo kinase to the filter-bound histone, light emitted was measured in a scintillation counter.
The inhibition assay of cdk2/Cyclin A activity was performed according to the following protocol.
Kinase reaction: 1.5 μM histone H1 substrate, 25 μM ATP (0.5 uCi P33γ-ATP), 100 ng Cyclin A/cdk2 complex, 10 μM inhibitor in a final volume of 100 μl buffer (TRIS HCl 10 mM pH 7.5, MgCl2 10 mM, 7.5 mM DTT) were added to each well of a 96 U bottom well plate. After 10 minutes at 37° C. incubation, reaction was stopped by 20 μl EDTA 120 mM.
Capture: 100 μl were transferred from each well MultiScreen plate, to allow substrate binding phosphocellulose filter. […]
Detection: filters were allowed to dry at 37° C., then 100 μl/well scintillant were added and 33P labelled histone H1 was detected by radioactivity counting in the Top-Count instrument.
Results: data were analysed and expressed as % inhibition referred to total activity of enzyme (=100%).

`C[C@H](C(=O)Nc1cc(C2CC2)[nH]n1)c1ccc(N2CCOC2=O)cc1` [(2S)-N-(5-cyclopropyl-1H-pyrazol-3-yl)-2-[4-(2-oxo-1,3-oxazolidin-3-yl)phenyl]propanamide]: the IC50 amounted to 8 nM.

By IC50 is commonly meant the point on the concentration scale where inhibition reaches its midpoint.
